Source: the supplement of paper PMC4862054

Experiments:
Conditions in all cases: incubation time: 72 h
MDA-MB-468 [1] = assay: normalised viability (% of control), CellTiter-Blue; higher = more viable cells (about 100 = DMSO control)
Method in brief: (§1)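 Each entry is normalised viability at a single listed concentration within a series. It comes from breast cancer cell lines incubated 72 h with compound in 384-well plates, then measured with CellTiter-Blue fluorescence at 560/590 nm. Every plate was normalised between vehicle (100) and a positive kill control (0).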

MDA-MB-436 = assay: as above
Method in brief: as §1

SK-BR-3 [2] = assay: as above
Method in brief: as §1

MDA-MB-453 [3] = assay: as above
Method in brief: as §1

CAL-51 [4] = assay: as above
Method in brief: as §1

DU-4475 [5] = assay: as above
Method in brief: as §1

CAL-148 [6] = assay: as above
Method in brief: as §1

MFM-223 [7] = assay: as above
Method in brief: as §1

BT-549 [8] = assay: as above
Method in brief: as §1

HCC1143 [9] = assay: as above
Method in brief: as §1

BT-474 [10] = assay: as above
Method in brief: as §1

MDA-MB-231 [11] = assay: as above
Method in brief: as §1

HCC1937 [12] = assay: as above
Method in brief: as §1

HDQ-P1 [13] = assay: as above
Method in brief: as §1

HCC1599 [14] = assay: as above
Method in brief: as §1

Hs578T = assay: as above
Method in brief: as §1

MDA-MB-468 [15] = assay: normalised viability (% of control), CellTiter-Blue; higher = more viable cells (100 = DMSO, 0 = benzethonium chloride kill control)
Protocol: (§2)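 DSRT, CellTiter-Blue viability, 72 h incubation. Signal is normalised to DMSO and benzethonium chloride controls. Value is the normalised response at dose 1.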

SK-BR-3 [16] = assay: as above
Protocol: as §2

MDA-MB-453 [17] = assay: as above
Protocol: as §2

CAL-51 [18] = assay: as above
Protocol: as §2

DU-4475 [19] = assay: as above
Protocol: as §2

CAL-148 [20] = assay: as above
Protocol: as §2

CAL-120 = assay: as above
Protocol: as §2

MFM-223 [21] = assay: as above
Protocol: as §2

BT-549 [22] = assay: as above
Protocol: as §2

CAL-85-1 = assay: as above
Protocol: as §2

HCC1143 [23] = assay: as above
Protocol: as §2

BT-474 [24] = assay: as above
Protocol: as §2

MDA-MB-231 [25] = assay: as above
Protocol: as §2

HCC1937 [26] = assay: as above
Protocol: as §2

HDQ-P1 [27] = assay: as above
Protocol: as §2

HCC1599 [28] = assay: as above
Protocol: as §2

O=C1NC(=O)[C@@H](c2cn3c4c(cccc24)CCC3)[C@@H]1c1c[nH]c2ccccc12 [Tivantinib]
normalised viability (MDA-MB-468 [1]; 10 nM): 104%
normalised viability (MDA-MB-436; 10 nM): 101%
normalised viability (SK-BR-3 [2]; 10 nM): 77.3%
normalised viability (MDA-MB-453 [3]; 1 nM): 108%
normalised viability (CAL-51 [4]; 1 nM): 106%
normalised viability (DU-4475 [5]; 1 nM): 97.8%
normalised viability (CAL-148 [6]; 1 nM): 107%
normalised viability (MFM-223 [7]; 10 nM): 105%
normalised viability (BT-549 [8]; 10 nM): 111%
normalised viability (HCC1143 [9]; 10 nM): 87.8%
normalised viability (BT-474 [10]; 10 nM): 109%
normalised viability (MDA-MB-231 [11]; 10 nM): 116%
normalised viability (HCC1937 [12]; 10 nM): 101%
normalised viability (HDQ-P1 [13]; 1 nM): 109%
normalised viability (HCC1599 [14]; 10 nM): 98.4%
normalised viability (Hs578T; 10 nM): 86.5%
normalised viability (MDA-MB-468 [15]; 0.1 nM): 110%
normalised viability (SK-BR-3 [16]; 0.1 nM): 95%
normalised viability (MDA-MB-453 [17]; 0.1 nM): 101%
normalised viability (CAL-51 [18]; 0.1 nM): 106%
normalised viability (DU-4475 [19]; 0.1 nM): 107%
normalised viability (CAL-148 [20]; 0.1 nM): 110%
normalised viability (CAL-120; 0.1 nM): 90.1%
normalised viability (MFM-223 [21]; 0.1 nM): 85.6%
normalised viability (BT-549 [22]; 0.1 nM): 105%
normalised viability (CAL-85-1; 0.1 nM): 101%
normalised viability (HCC1143 [23]; 0.1 nM): 108%
normalised viability (BT-474 [24]; 0.1 nM): 128%
normalised viability (MDA-MB-231 [25]; 0.1 nM): 111%
normalised viability (HCC1937 [26]; 0.1 nM): 86.3%
normalised viability (HDQ-P1 [27]; 0.1 nM): 83.2%
normalised viability (HCC1599 [28]; 0.1 nM): 85.6%

CN(C)CCN1C(=O)c2cccc3cc(N)cc(c23)C1=O [Amonafide]
normalised viability (MDA-MB-468 [1]; 100 nM): 113%
normalised viability (MDA-MB-436; 100 nM): 104%
normalised viability (SK-BR-3 [2]; 100 nM): 76%
normalised viability (MDA-MB-453 [3]; 10 nM): 94.1%
normalised viability (CAL-51 [4]; 10 nM): 111%
normalised viability (DU-4475 [5]; 10 nM): 95.8%
normalised viability (CAL-148 [6]; 10 nM): 85.2%
normalised viability (MFM-223 [7]; 100 nM): 87.5%
normalised viability (BT-549 [8]; 100 nM): 94.9%
normalised viability (HCC1143 [9]; 100 nM): 87%
normalised viability (BT-474 [10]; 100 nM): 119%
normalised viability (MDA-MB-231 [11]; 100 nM): 88%
normalised viability (HCC1937 [12]; 100 nM): 109%
normalised viability (HDQ-P1 [13]; 10 nM): 105%
normalised viability (HCC1599 [14]; 100 nM): 102%
normalised viability (Hs578T; 100 nM): 84.8%
normalised viability (MDA-MB-468 [15]; 1 nM): 110%
normalised viability (SK-BR-3 [16]; 1 nM): 101%
normalised viability (MDA-MB-453 [17]; 1 nM): 87.3%
normalised viability (CAL-51 [18]; 1 nM): 107%
normalised viability (DU-4475 [19]; 1 nM): 99.6%
normalised viability (CAL-148 [20]; 1 nM): 89.9%
normalised viability (CAL-120; 1 nM): 78.7%
normalised viability (MFM-223 [21]; 1 nM): 93%
normalised viability (BT-549 [22]; 1 nM): 94.4%
normalised viability (CAL-85-1; 1 nM): 90%
normalised viability (HCC1143 [23]; 1 nM): 83.7%
normalised viability (BT-474 [24]; 1 nM): 103%
normalised viability (MDA-MB-231 [25]; 1 nM): 93.1%
normalised viability (HCC1937 [26]; 1 nM): 108%
normalised viability (HDQ-P1 [27]; 1 nM): 105%
normalised viability (HCC1599 [28]; 1 nM): 88.2%

Cn1cncc1[C@@](N)(c1ccc(Cl)cc1)c1ccc2c(c1)c(-c1cccc(Cl)c1)cc(=O)n2C [Tipifarnib]
normalised viability (MDA-MB-468 [1]; 100 nM): 96.7%
normalised viability (MDA-MB-436; 100 nM): 87.9%
normalised viability (SK-BR-3 [2]; 100 nM): 57.8%
normalised viability (MDA-MB-453 [3]; 10 nM): 93%
normalised viability (CAL-51 [4]; 10 nM): 99.9%
normalised viability (DU-4475 [5]; 10 nM): 92.8%
normalised viability (CAL-148 [6]; 10 nM): 83.2%
normalised viability (MFM-223 [7]; 100 nM): 70.3%
normalised viability (BT-549 [8]; 100 nM): 95.3%
normalised viability (HCC1143 [9]; 100 nM): 61.6%
normalised viability (BT-474 [10]; 100 nM): 102%
normalised viability (MDA-MB-231 [11]; 100 nM): 71.8%
normalised viability (HCC1937 [12]; 100 nM): 64.9%
normalised viability (HDQ-P1 [13]; 10 nM): 89.7%
normalised viability (HCC1599 [14]; 100 nM): 72.7%
normalised viability (Hs578T; 100 nM): 70.1%
normalised viability (MDA-MB-468 [15]; 1 nM): 105%
normalised viability (SK-BR-3 [16]; 1 nM): 92.5%
normalised viability (MDA-MB-453 [17]; 1 nM): 94.7%
normalised viability (CAL-51 [18]; 1 nM): 98.4%
normalised viability (DU-4475 [19]; 1 nM): 104%
normalised viability (CAL-148 [20]; 1 nM): 102%
normalised viability (CAL-120; 1 nM): 78%
normalised viability (MFM-223 [21]; 1 nM): 87.6%
normalised viability (BT-549 [22]; 1 nM): 120%
normalised viability (CAL-85-1; 1 nM): 81.1%
normalised viability (HCC1143 [23]; 1 nM): 85.6%
normalised viability (BT-474 [24]; 1 nM): 92.1%
normalised viability (MDA-MB-231 [25]; 1 nM): 98.8%
normalised viability (HCC1937 [26]; 1 nM): 89%
normalised viability (HDQ-P1 [27]; 1 nM): 105%
normalised viability (HCC1599 [28]; 1 nM): 90.4%
